Experimental data published in US9328099B2, “Cyanomethylpyrazole carboxamides as janus kinase inhibitors” (Merck Sharp & Dohme Corp., priority 2011, dated 2016).

Columns and labels:
[1] = molecular target: JAK2 (Homo sapiens (Human), UniProt O60674); test: Jak Biochemical HTRF Assay, JAK2; conditions: HTRF biochemical assay, GST-tagged catalytic domain; top concentration tested […]
Description: (§1) Jak Biochemical HTRF Assay Protocol
(§2) Subsequent reagent additions employed an Agilent Bravo.

[2] = molecular target: JAK1 (Homo sapiens (Human), UniProt P23458); test: Jak Biochemical HTRF Assay, JAK1; conditions: HTRF biochemical assay, GST-tagged catalytic domain; top concentration tested […]; read-out: JAK1 IC50
Description: as §1, §2

Chain of JAK2 (O60674 849-1124): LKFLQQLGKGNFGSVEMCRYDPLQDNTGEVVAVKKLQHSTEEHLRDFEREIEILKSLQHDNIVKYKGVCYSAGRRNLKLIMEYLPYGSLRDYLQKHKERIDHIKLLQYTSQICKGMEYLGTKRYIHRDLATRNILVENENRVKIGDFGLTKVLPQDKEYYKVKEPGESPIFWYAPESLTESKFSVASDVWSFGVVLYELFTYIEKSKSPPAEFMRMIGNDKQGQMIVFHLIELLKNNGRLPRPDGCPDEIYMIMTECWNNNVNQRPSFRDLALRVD
Chain of JAK1 (P23458 875-1153): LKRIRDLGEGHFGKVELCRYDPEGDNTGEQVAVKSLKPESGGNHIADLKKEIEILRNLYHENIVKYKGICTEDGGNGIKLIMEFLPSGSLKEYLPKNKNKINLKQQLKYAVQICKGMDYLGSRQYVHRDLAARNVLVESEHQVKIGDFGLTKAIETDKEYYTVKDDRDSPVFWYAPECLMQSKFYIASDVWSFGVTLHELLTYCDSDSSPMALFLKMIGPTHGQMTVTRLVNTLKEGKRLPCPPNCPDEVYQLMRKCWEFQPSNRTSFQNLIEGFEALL

Compound | IC50 [1] [nM] | IC50 [2] [nM]
CN(C)CCCOC(=O)N1CC(CC#N)(n2cc(C(N)=O)c(Nc3ccccc3)n2)C1 [Example 30-71, 3-(dimethylamino)propyl 3-[4-carbamoyl-3-(phenylamino)-1H-pyrazol-1-yl]-3-(cyanomethyl)azetidine-1-carboxylate] | 1480 | 200
C[C@@H](OC(=O)N1CCC(CC#N)(n2cc(C(N)=O)c(Nc3ccnc(F)c3)n2)CC1)C1CC1 [Example 30-78, (1R)-1-cyclopropylethyl 4-{4-carbamoyl-3-[(2-fluoropyridin-4-yl)amino]-1H-pyrazol-1-yl}-4-(cyanomethyl)piperidine-1-carboxylate] | 12 | 0.3
CC(C)(C)OC(=O)N1CCC(CC#N)(n2cc(C(N)=O)c(Nc3ccc(S(C)(=O)=O)cc3)n2)C1 (stereo not drawn) [Example 2-16, tert-butyl 3-(4-carbamoyl-3-{[4-(methylsulfonyl)phenyl]amino}-1H-pyrazol-1-yl)-3-(cyanomethyl)pyrrolidine-1-carboxylate] | 2 | 0.2
N#CCC1(n2cc(C(N)=O)c(Nc3ccc(F)cc3)n2)CCC(N2CC(F)C2)CC1 (stereo not drawn) [Example 40-100, Cis or trans 1-[1-(cyanomethyl)-4-(3-fluoroazetidin-1-yl)cyclohexyl]-3-[(4-fluorophenyl)amino]-1H-pyrazole-4-carboxamide] | 216 | 18
N#CCC1(n2cc(C(N)=O)c(Nc3ccnc(F)c3)n2)CCN(Cc2cccnn2)CC1 [Example 22-35, 1-[4-(cyanomethyl)-1-(pyridazin-3-ylmethyl)piperidin-4-yl]-3-[(2-fluoropyridin-4-yl)amino]-1H-pyrazole-4-carboxamide] | 145 | 6
N#CCC1(n2cc(C(N)=O)c(Nc3ccc(F)cc3)n2)CCN(c2ccccn2)CC1 [Example 25, 1-(4-(Cyanomethyl)-1-(pyridin-2-yl)piperidin-4-yl)-3-(4-fluorophenylamino)-1H-pyrazole-4-carboxamide] | 2 | 0.08
N#CCC1(n2cc(C(N)=O)c(Nc3ccccc3)n2)CCN(C(=O)OCc2cccnc2)CC1 [Example 30-39, pyridin-3-ylmethyl 4-[4-carbamoyl-3-(phenylamino)-1H-pyrazol-1-yl]-4-(cyanomethyl)piperidine-1-carboxylate] | 38 | 2
N#CCC1(n2cc(C(N)=O)c(Nc3ccnc(F)c3)n2)CCN(Cc2ccco2)CC1 [Example 22-19, 1-[4-(cyanomethyl)-1-(furan-2-ylmethyl)piperidin-4-yl]-3-[(2-fluoropyridin-4-yl)amino]-1H-pyrazole-4-carboxamide] | 25 | 0.7
N#CCC1(n2cc(C(N)=O)c(Nc3ccc(F)cc3)n2)CCC(Nc2ccccc2)CC1 (stereo not drawn) [Example 40-103, Cis or trans 1-[1-(cyanomethyl)-4-(phenylamino)cyclohexyl]-3-[(4-fluorophenyl)amino]-1H-pyrazole-4-carboxamide] | 3 | 0.1
N#CCC1(n2cc(C(N)=O)c(Nc3ccc(F)cc3)n2)CCC(N2CCC(O)CC2)CC1 (stereo not drawn) [Example 40-41, Cis or trans 1-[1-(cyanomethyl)-4-(4-hydroxypiperidin-1-yl)cyclohexyl]-3-[(4-fluorophenyl)amino]-1H-pyrazole-4-carboxamide] | > 1500 | 584
N#CCC1(n2cc(C(N)=O)c(Nc3ccc(F)cc3)n2)CCC(Nc2ccc(Cl)cc2)CC1 (stereo not drawn) [Example 40-52, Cis or trans 1-{4-[(4-chlorophenyl)amino]-1-(cyanomethyl)cyclohexyl}-3-[(4-fluorophenyl)amino]-1H-pyrazole-4-carboxamide] | 20 | 0.6
CC(C)(C)OC(=O)N1CCC(CC#N)(n2cc(C(N)=O)c(Nc3ccc(C(=O)C(F)(F)F)cc3)n2)CC1 [Example 9-11, tert-butyl 4-(4-carbamoyl-3-{[4-(trifluoroacetyl)phenyl]amino}-1H-pyrazol-1-yl)-4-(cyanomethyl)piperidine-1-carboxylate] | 3 | 0.2
Cc1ccnc(N2CCC(CC#N)(n3cc(C(N)=O)c(Nc4ccc(F)cc4)n3)CC2)c1 [Example 3-31, 1-[4-(cyanomethyl)-1-(4-methylpyridin-2-yl)piperidin-4-yl]-3-[(4-fluorophenyl)amino]-1H-pyrazole-4-carboxamide] | 44 | 1
N#CCC1(n2cc(C(N)=O)c(Nc3ccnc(F)c3)n2)CCC(Nc2ccc(F)c(F)c2)CC1 (stereo not drawn) [Example 40-36, Cis or trans 1-{1-(cyanomethyl)-4-[(3,4-difluorophenyl)amino]cyclohexyl}-3-[(2-fluoropyridin-4-yl)amino]-1H-pyrazole-4-carboxamide] | > 1500 | 65
CC(C)(C)OC(=O)N1CCC(CC#N)(n2cc(C(N)=O)c(Nc3ccc(S(N)(=O)=O)cc3)n2)CC1 [Example 9-20, tert-butyl 4-{4-carbamoyl-3-[(4-sulfamoylphenyl)amino]-1H-pyrazol-1-yl}-4-(cyanomethyl)piperidine-1-carboxylate] | 1 | 0.1
N#CCC1(n2cc(C(N)=O)c(Nc3ccc(F)cc3)n2)CCN(c2ccnc3ccccc23)CC1 [Example 3-3, 1-[4-(cyanomethyl)-1-quinolin-4-ylpiperidin-4-yl]-3-[(4-fluorophenyl)amino]-1H-pyrazole-4-carboxamide] | 488 | 5
Cc1ccncc1N1CCC(CC#N)(n2cc(C(N)=O)c(Nc3ccc(F)cc3)n2)CC1 [Example 3-33, 1-[4-(cyanomethyl)-1-(4-methylpyridin-3-yl)piperidin-4-yl]-3-[(4-fluorophenyl)amino]-1H-pyrazole-4-carboxamide] | 102 | 7
Cc1ccccc1-c1cccc(Nc2nn(C3(CC#N)CCN(C(=O)OC(C)(C)C)CC3)cc2C(N)=O)c1 [Example 15-7, tert-butyl 4-{4-carbamoyl-3-[(2′-methylbiphenyl-3-yl)amino]-1H-pyrazol-1-yl}-4-(cyanomethyl)piperidine-1-carboxylate] | 1480 | 127
N#CCC1(n2cc(C(N)=O)c(Nc3ccc(F)cc3)n2)CCN(c2ccncn2)CC1 [Example 26, 1-[4-(Cyanomethyl)-1-pyrimidin-4-ylpiperidin-4-yl]-3-[(4-fluorophenyl)amino]-1H-pyrazole-4-carboxamide] | 5 | 0.4
Cn1cc(-c2ccc(Nc3nn(C4(CC#N)CCN(C(=O)OCC(F)(F)F)CC4)cc3C(N)=O)cn2)cn1 [Example 11-1, 2,2,2-Trifluoroethyl 4-(4-carbamoyl-3-{[6-(1-methyl-1H-pyrazol-4-yl)pyridin-3-yl]amino}-1H-pyrazol-1-yl)-4-(cyanomethyl)piperidine-1-carboxylate] | 0.5 | 0.03
N#CCC1(n2cc(C(N)=O)c(Nc3ccccc3)n2)CN(C(=O)Nc2ccc(F)c(Cl)c2)C1 [Example 38-40, 1-{1-[(3-chloro-4-fluorophenyl)carbamoyl]-3-(cyanomethyl)azetidin-3-yl}-3-(phenylamino)-1H-pyrazole-4-carboxamide] | 279 | 18
N#CCC1(n2cc(C(N)=O)c(Nc3ccccc3)n2)CN(C(=O)OCCF)C1 [Example 30-50, 2-fluoroethyl 3-[4-carbamoyl-3-(phenylamino)-1H-pyrazol-1-yl]-3-(cyanomethyl)azetidine-1-carboxylate] | 27 | 2
N#CCC1(n2cc(C(N)=O)c(Nc3ccc(F)cc3)n2)CCN(CCF)CC1 [Example 24-1, 1-(4-(Cyanomethyl)-1-(2-fluoroethyl)piperidin-4-yl)-3-((4-fluorophenyl)amino)-1H-pyrazole-4-carboxamide] | 59 | 10
CC(C)(C)C(=O)N1CC(CC#N)(n2cc(C(N)=O)c(Nc3ccccc3)n2)C1 [Example 34-37, 1-[3-(cyanomethyl)-1-(2,2-dimethylpropanoyl)azetidin-3-yl]-3-(phenylamino)-1H-pyrazole-4-carboxamide] | 570 | 138
CC(C)(C)OC(=O)N1CCC(CC#N)(n2cc(C(N)=O)c(Nc3ccc4c(c3)CNC4=O)n2)CC1 [Example 12-7, tert-butyl 4-{4-carbamoyl-3-[(1-oxo-2,3-dihydro-1H-isoindol-5-yl)amino]-1H-pyrazol-1-yl}-4-(cyanomethyl)piperidine-1-carboxylate] | 2 | 0.1
N#CC[C@@]1(n2cc(C(N)=O)c(Nc3ccnc(F)c3)n2)CCN(C(=O)OCC(F)F)C[C@@H]1F [Example 46] | 0.1 | 0.03
CCC(=O)N1CC(CC#N)(n2cc(C(N)=O)c(Nc3ccccc3)n2)C1 [Example 34-36, 1-[3-(cyanomethyl)-1-propanoylazetidin-3-yl]-3-(phenylamino)-1H-pyrazole-4-carboxamide] | 298 | 42
N#CCC1(n2cc(C(N)=O)c(Nc3ccccc3)n2)CCN(C(=O)OC2CCCCC2)CC1 [Example 30-31, cyclohexyl 4-[4-carbamoyl-3-(phenylamino)-1H-pyrazol-1-yl]-4-(cyanomethyl)piperidine-1-carboxylate] | 318 | 8
N#CCC1(n2cc(C(N)=O)c(Nc3ccc(F)cc3)n2)CCN(C(=O)OCC2CCOCC2)CC1 [Example 30-21, tetrahydro-2H-pyran-4-ylmethyl 4-{4-carbamoyl-3-[(4-fluorophenyl)amino]-1H-pyrazol-1-yl}-4-(cyanomethyl)piperidine-1-carboxylate] | 145 | 6
Cc1nc(-c2ccc(Nc3nn(C4(CC#N)CCN(C(=O)OC(C)(C)C)CC4)cc3C(N)=O)cc2)no1 [Example 9-32, tert-butyl 4-(4-carbamoyl-3-{[4-(5-methyl-1,2,4-oxadiazol-3-yl)phenyl]amino}-1H-pyrazol-1-yl)-4-(cyanomethyl)piperidine-1-carboxylate] | 8 | 0.3
